This is an account of results in PubChem BioAssay (NCI).

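Five concentrations, 48 hours, 96-well plates. TGI: concentration producing complete growth inhibition.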

Holding throughout (test): inhibition of tumour cell growth, NCI panel, 48 h
Test [1] concerns A549 NSCLC.
Test [2] has as its system COLO 205 colon.
Test [3] deals with DU-145 prostate.
The subject of test [4] is EKVX NSCLC.
Test [5] deals with HCT-15 colon.
For test [6], the system named is HOP-92 NSCLC.
Test [7] deals with IGROV1 ovarian.
Test [8] has as its system M14 melanoma.
Test [9] relates to MALME-3M melanoma.
Test [10] relates to MDA-MB-435.
For test [11], the system named is NCI-H460 lung.
In test [12] the test system is OVCAR-5 ovarian.
In test [13] the test system is RXF 393 renal.
Test [14] relates to SF-295 CNS.
For test [15], the system named is SK-MEL-28 melanoma.
The subject of test [16] is SNB-75 CNS.
Test [17] has as its system SW-620 colon.
Test [18] has as its system U251 CNS.
The test system of test [19] is UACC-257 melanoma.

Turning to `CC(=O)O[C@H]1C[C@H]2[C@@H](OC(C)=O)/C=C3\C[C@](C)(C(=O)[C@H](O)C(=C1C)C2(C)C)[C@@H](O)C[C@@H]3OC(=O)[C@H](O)[C@H](c1ccccc1)N(C)C`, the TGI in [1], in test [2], in test [3], in [4], in test [5] and in test [6] was > 100 µM each time. Moreover, the TGI in [7], in test [8], in test [9], in [10], in test [11] and in [12] was > 100 µM throughout. Also, the TGI in test [13], in test [14], in [15], in test [16], in test [17] and in [18] was > 100 µM in each case. In addition, the TGI in [19] was > 100 µM.

`N#Cc1c(-c2ccc(Cl)cc2)c2c([nH]c1=O)-c1ccccc1SC2`: the TGI was > 100 µM in test [1]; 50.3 µM in test [2]; > 100 µM in test [3]; 70.8 µM in test [4]; > 100 µM in test [5]; 71.9 µM in [6]. Besides, the TGI in [7], in [8], in test [9], in [10], in test [11] and in test [12] was > 100 µM each time. For the same compound, the TGI in [13] is 77.4 µM; in [14] it was > 100 µM; in [15], > 100 µM; in test [16], 69.5 µM; in [17], > 100 µM; in [18], > 100 µM. In addition, the TGI in [19] was > 100 µM.

`OC1[C@@H]2[C@@H](O)[C@H](O)[C@@H](O)N2C[C@@H]1O` (some centres undefined): the TGI in test [1], in [2], in test [3], in [4], in test [5] and in test [6] was > 100 µM throughout. For the same compound, the TGI in test [7], in test [8], in test [9], in test [10], in [11] and in test [12] was > 100 µM throughout. Moreover, the TGI in test [13], in test [14], in test [15], in test [16], in [17] and in test [18] was > 100 µM each time. In addition, the TGI in [19] was > 100 µM.

For `Oc1cn(-c2ccc(Cl)cc2)nc1-c1nnc(-c2ccccc2)o1`, the TGI in test [1] was 31.5 µM; in test [2], > 49.8 µM; in test [3], > 60.6 µM; in [4], > 60.1 µM; in [5], 27.2 µM; in test [6], 80.6 µM. The TGI is > 53.4 µM in test [7]; 11.7 µM in test [8]; 31.8 µM in [9]; 10.4 µM in test [10]; 13.8 µM in [11]; 39.3 µM in test [12]. In addition, the TGI is 9.55 µM in test [13]; 4.52 µM in [14]; 53.1 µM in [15]; > 100 µM in [16]; 36.4 µM in test [17]; 30.8 µM in test [18]. Also, in test [19], the TGI is 21.6 µM.

In the case of `O=C1NC(=O)C(c2c[nH]c3ccccc23)=C1c1cnc[nH]1`, the TGI in test [1], in [2], in [3], in test [4], in test [5] and in test [6] was > 100 µM each time. Moreover, the TGI in test [7], in test [8], in test [9], in test [10], in test [11] and in test [12] was > 100 µM each time. The TGI in test [13], in test [14], in [15], in test [16], in [17] and in test [18] was > 100 µM throughout. For the same compound, the TGI in test [19] was > 100 µM.

For `COC(=O)c1cc2c3c(ccc2[nH]1)N(C(=O)c1cc2cc(OC)c(OC)c(OC)c2[nH]1)CC3CCl` (centres undefined), the TGI is > 100 µM in [1]; > 20.9 µM in test [2]; > 84.6 µM in [3]; > 100 µM in test [4]; > 100 µM in test [5]; > 100 µM in [6]. For the same compound, the TGI in test [7], in test [8], in test [9], in test [10], in test [11] and in test [12] was > 100 µM in each case. Further, the TGI in test [13], in [14], in [15], in [16], in [17] and in test [18] was > 100 µM throughout. In test [19], the TGI was > 100 µM.

For the compound `CC(C)(Cl)C(Br)CCC(C)(Cl)C(Br)CBr` (centres undefined), the TGI in test [1] is > 100 µM; in test [2], 33.8 µM; in test [3] it was 85.2 µM; in [4], 84.2 µM; in test [5], 61.9 µM; in [6] it was 46 µM. In addition, the TGI was 65.4 µM in test [7]; > 100 µM in [8]; 41 µM in [9]; 73.6 µM in test [10]; 40.5 µM in test [11]; 48.7 µM in test [12]. Further, the TGI in [13] amounted to 65.9 µM; in test [14], 46 µM; in [15] it was 79.7 µM; in [16], 93.9 µM; in [17], 95.5 µM; in test [18] it was 69.5 µM. Further, the TGI in test [19] is 51 µM.

For `COC(=O)C1=C(C)NC2=C(C(=O)c3ccccc32)C1c1cn(-c2ccccc2)nc1-c1ccccc1` (centres undefined), the TGI in [1], in [2], in test [3], in [4], in test [5] and in test [6] was > 100 µM throughout. Further, the TGI in [7], in [8], in test [9], in test [10], in test [12] and in [13] was > 100 µM throughout. Moreover, the TGI in test [14], in test [15], in [16], in test [17], in test [18] and in test [19] was > 100 µM in each case.

Take `O=C(C=P(c1ccccc1)(c1ccccc1)c1ccccc1)c1ccc(-c2cccc([N+](=O)[O-])c2)s1`: the TGI in test [1] is > 100 µM; in test [2] it was 27.9 µM; in test [3], > 100 µM; in test [4] it was > 100 µM; in test [5], > 100 µM; in [6], 81.4 µM. Further, the TGI in [7], in test [8], in test [9], in test [10], in [11] and in test [12] was > 100 µM throughout. For the same compound, the TGI is > 100 µM in [13]; > 100 µM in test [14]; > 100 µM in [15]; 76.3 µM in test [16]; > 100 µM in test [17]; > 100 µM in test [18].

In the case of `CC(C)(Br)C(Br)CCC1(C2CO2)CO1` (centres undefined), the TGI in test [1], in test [2], in test [3], in [4], in test [5] and in [6] was > 5 µM in each case. Further, the TGI in test [7], in test [8], in test [9], in test [10], in test [13] and in test [14] was > 5 µM in each case. Besides, the TGI in test [15], in test [16], in test [17], in [18] and in test [19] was > 5 µM each time.

Take `O=C1C2CC=CCC2C(=O)N1n1c(Cc2ccc(Cl)cc2)n[nH]c1=O` (centres undefined): the TGI in test [1], in test [2], in test [3], in test [4], in test [5] and in [6] was > 100 µM each time. For the same compound, the TGI in test [7], in test [8], in test [9], in test [10], in [12] and in test [13] was > 100 µM in each case. In addition, the TGI in test [14], in test [15], in [16], in [17], in test [18] and in test [19] was > 100 µM throughout.
